Experimental data as given in US9029343B2, “Modulators of histone methyltransferase, and methods of use thereof” (Epizyme, Inc., priority 2010, dated 2015).

Tests used:
[1] = target: EZH2 (Homo sapiens, UniProt Q15910); experiment: EZH2 IC50 (FIGS. 7A and 7B); type: biochemical
[2] = system: H3K4, H3K9 and H3K27 methylation in THP-1 cells; experiment: Methylation analysis: other histone methylation sites in THP-1 cells; type: cell-based, Human; details: antibodies to H3K4me3, H3K9me3, H3K27me2, H3K27me3
Procedure: (§1) Cells were seeded at 5×10^5 cells/mL in a 12 well plate at a final volume of 2 mLs. Cells were dosed with compounds to the appropriate concentration from a 50 mM DMSO stock solution. Compound and media were refreshed every two days over the course of seven day incubation by counting cells using trypan blue exclusion (Vicell), pelleting at 200 g for 5 minutes and resuspending in fresh media containing compound at a final cell concentration of 5×10^5 cells/mL. Following compound incubation, histones were extracted from 1×10^6 cells using a commercial histone extraction kit (Active Motif). Purified histones were quantitated using the BCA protein assay (Pierce) with a BSA standard curve. 400 ng of isolated histones were fractionated by SDS-PAGE on a 4-20% gel and transferred to nitrocellulose membranes. Membranes were incubated with various primary and secondary antibodies and imaged on the Licor imaging system (Odyssey). The H3K79-Me2 rabbit polyclonal was purchased from Abcam. Other rabbit polyclonal antibodies including H3K4-Me3, H3K9-Me3, H3K27-Me2, and H3K27-Me3 were purchased from Cell Signaling Technologies (CST). A mouse monoclonal total H3 antibody was used as a loading control (CST). Fluorescently labeled secondary antibodies were purchased from Odyssey.

[3] = system: H3K79me2 in THP-1 cells; experiment: Methylation analysis: cellular H3K79 dimethylation in THP-1 cells; type: cell-based, Human
Procedure: THP-1 cells were incubated in the presence 50 μM of the indicated compounds for seven days. […] Following treatment, cells were harvested, and histones were extracted, fractionated by SDS-PAGE on a 4-20% gel, transferred to nitrocellulose membranes, and probed with antibodies to histone H3 and histone H3 dimethylated at lysine 79 (H3K79me2). Histones extracted from THP-1 cells expressing control (shNTC) and DOT1L targeting (shDOT1L) shRNAs were included as controls.
as §1, with “Following compound incubation, histones were extracted from 1×10^6 cells using a commercial histone extraction kit (Active Motif).” left out

EZH2, sequence (Q15910 whole entry, species assumed): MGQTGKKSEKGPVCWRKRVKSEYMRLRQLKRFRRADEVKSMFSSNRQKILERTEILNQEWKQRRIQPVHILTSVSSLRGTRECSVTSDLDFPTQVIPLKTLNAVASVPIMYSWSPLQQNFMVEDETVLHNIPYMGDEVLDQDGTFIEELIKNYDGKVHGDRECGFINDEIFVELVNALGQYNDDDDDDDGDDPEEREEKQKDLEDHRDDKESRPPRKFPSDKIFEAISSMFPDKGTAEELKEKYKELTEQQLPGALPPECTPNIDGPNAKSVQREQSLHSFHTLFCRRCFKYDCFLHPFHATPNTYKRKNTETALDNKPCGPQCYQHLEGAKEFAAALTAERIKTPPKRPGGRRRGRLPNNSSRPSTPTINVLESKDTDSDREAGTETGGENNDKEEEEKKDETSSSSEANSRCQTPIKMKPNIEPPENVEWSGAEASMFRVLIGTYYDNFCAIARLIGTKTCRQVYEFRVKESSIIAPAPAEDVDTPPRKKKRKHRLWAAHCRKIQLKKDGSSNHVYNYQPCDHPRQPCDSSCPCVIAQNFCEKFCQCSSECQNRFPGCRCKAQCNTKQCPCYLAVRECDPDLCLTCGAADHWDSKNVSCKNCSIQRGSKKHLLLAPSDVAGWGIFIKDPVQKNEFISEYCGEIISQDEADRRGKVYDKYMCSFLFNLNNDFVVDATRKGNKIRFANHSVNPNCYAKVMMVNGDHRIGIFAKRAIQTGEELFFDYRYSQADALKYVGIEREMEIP
EZH2, sequence (O75530 whole entry partner, species assumed): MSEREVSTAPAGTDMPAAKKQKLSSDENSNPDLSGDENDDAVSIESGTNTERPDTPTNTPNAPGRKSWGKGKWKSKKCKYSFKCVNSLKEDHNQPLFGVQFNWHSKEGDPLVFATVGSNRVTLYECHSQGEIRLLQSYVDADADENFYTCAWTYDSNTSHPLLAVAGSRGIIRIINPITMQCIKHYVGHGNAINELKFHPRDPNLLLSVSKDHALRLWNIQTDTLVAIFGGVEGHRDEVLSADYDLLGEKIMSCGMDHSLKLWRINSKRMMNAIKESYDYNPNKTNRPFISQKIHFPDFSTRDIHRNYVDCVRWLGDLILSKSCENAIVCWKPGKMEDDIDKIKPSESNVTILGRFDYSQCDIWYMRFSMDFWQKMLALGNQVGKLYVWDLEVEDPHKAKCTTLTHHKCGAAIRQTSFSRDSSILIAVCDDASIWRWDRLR
EZH2, sequence (Q15022 whole entry partner, species assumed): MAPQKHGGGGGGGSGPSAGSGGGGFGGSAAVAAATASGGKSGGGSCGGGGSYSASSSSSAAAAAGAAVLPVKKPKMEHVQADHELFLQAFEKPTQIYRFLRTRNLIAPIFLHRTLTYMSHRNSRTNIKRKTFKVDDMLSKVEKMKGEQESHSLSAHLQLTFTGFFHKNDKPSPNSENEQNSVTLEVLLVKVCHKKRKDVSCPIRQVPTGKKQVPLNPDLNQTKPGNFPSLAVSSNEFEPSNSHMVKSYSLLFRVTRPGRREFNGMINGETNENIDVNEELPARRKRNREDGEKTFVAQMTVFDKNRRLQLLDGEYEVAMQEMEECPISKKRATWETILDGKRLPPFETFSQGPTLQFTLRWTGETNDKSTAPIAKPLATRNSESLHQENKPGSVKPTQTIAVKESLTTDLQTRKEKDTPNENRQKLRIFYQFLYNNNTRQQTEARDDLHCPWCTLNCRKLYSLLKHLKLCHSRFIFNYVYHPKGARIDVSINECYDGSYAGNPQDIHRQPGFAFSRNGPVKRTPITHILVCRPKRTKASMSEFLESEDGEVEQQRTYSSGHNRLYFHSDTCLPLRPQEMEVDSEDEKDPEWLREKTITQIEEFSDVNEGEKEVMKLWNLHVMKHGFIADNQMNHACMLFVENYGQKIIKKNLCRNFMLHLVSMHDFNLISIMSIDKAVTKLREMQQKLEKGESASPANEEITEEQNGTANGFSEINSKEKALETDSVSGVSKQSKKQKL

How did the IC50 [1] turn out when `Cc1cccc(-c2ccc(NC(=O)NCCCN(C)C[C@H]3O[C@@H](n4cnc5c(N)ncnc54)[C@H](O)[C@@H]3O)cc2)c1` [Compound 199] was run?
Its IC50 is > 50 µM.

How did the IC50 [1] turn out when `CN(CCCOC(=O)Nc1ccc(C(C)(C)C)cc1)C[C@H]1O[C@@H](n2cnc3c(N)ncnc32)[C@H](O)[C@@H]1O` [Compound 152] was run?
The IC50 was > 50 µM.

Which IC50 [1] does the source give for `CC(=O)N(CCCNC(=O)Nc1ccc(C(C)(C)C)cc1)C[C@H]1O[C@@H](n2cnc3c(N)ncnc32)[C@H](O)[C@@H]1O` [Compound 195] here?
The IC50 was > 50 µM.

For `CN(CCCCC(=O)Nc1ccc(C(C)(C)C)cc1)C[C@H]1O[C@@H](n2cnc3c(N)ncnc32)[C@H](O)[C@@H]1O` [Compound 179], which IC50 [1] is on record?
Its IC50 is > 50 µM.

Which IC50 [1] does the source give for `CN(CCCNC(=O)Nc1ccc(-c2cscn2)cc1)C[C@H]1O[C@@H](n2cnc3c(N)ncnc32)[C@H](O)[C@@H]1O` [Compound 190] here?
The IC50 was > 50 µM.

How did the IC50 [1] turn out when `CN(CCCN(C)C(=O)Nc1ccc(C(C)(C)C)cc1)C[C@H]1O[C@@H](n2cnc3c(N)ncnc32)[C@H](O)[C@@H]1O` [Compound 173] was run?
The IC50 was > 50 µM.

With `CC(CNC(=O)Nc1ccc(C(C)(C)C)cc1)CN(C)C[C@H]1O[C@@H](n2cnc3c(N)ncnc32)[C@H](O)[C@@H]1O` (some centres unmarked) [Compound 223] as the compound, how does the IC50 [1] read?
Its IC50 is > 50 µM.

Which IC50 [1] does the source give for `CCN(CCCNC(=O)Nc1ccc(C(C)(C)C)cc1)C[C@H]1O[C@@H](n2cnc3c(N)ncnc32)[C@H](O)[C@@H]1O` [Compound 169] here?
Its IC50 is > 50 µM.

For `CN(C[C@H]1O[C@@H](n2cnc3c(N)ncnc32)[C@H](O)[C@@H]1O)CC(C)(C)CNC(=O)Nc1ccc(C(C)(C)C)cc1` [Compound 163], which IC50 [1] is on record?
The IC50 was > 50 µM.

For `CN(CCCCCNC(=O)Nc1ccc(C(C)(C)C)cc1)C[C@H]1O[C@@H](n2cnc3c(N)ncnc32)[C@H](O)[C@@H]1O` [Compound 213], which IC50 [1] is on record?
The IC50 was > 50 µM.

With `CN(CCCNC(=O)Nc1ccc(C(C)(C)C)cc1)C[C@H]1O[C@@H](n2cnc3c(N)ncnc32)[C@H](O)[C@@H]1O` [Compound 118, 1-(3-((((2R,3S,4R,5R)-5-(6-amino-9H-purin-9-yl)-3,4-dihydroxytetrahydrofuran-2-yl)methyl)(methyl)amino)propyl)-3-(4-(tert-butyl)phenyl)urea] as the compound, how does the “effect on sites targeted by other histone methyltransferases (H3K4, H3K9 and H3K27)” value [2] read?
The value was “did not affect”.

What about the “cellular histone H3 lysine 79 dimethylation (H3K79me2) level” value ([3]; 50 μM, seven days, western blot) of the same compound?
Its value is “dramatically reduced”.

And the “concentration at which reduction in H3K79me2 was still observed” value ([3]; seven days, lowest concentration tested)?
The value was ≤ 0.4 µM.

And the “concentration dependence of reduction in H3K79me2 levels” value ([3]; several concentrations)?
Its value is “dose dependent reduction”.

With `CC(C)CN(CCCNC(=O)Nc1ccc(C(C)(C)C)cc1)C[C@H]1O[C@@H](n2cnc3c(N)ncnc32)[C@H](O)[C@@H]1O` [Compound 209] as the compound, how does the IC50 [1] read?
Its IC50 is > 50 µM.

For `CN(C[C@H]1O[C@@H](n2cnc3c(N)ncnc32)[C@H](O)[C@@H]1O)CC1(CNC(=O)Nc2ccc(C(C)(C)C)cc2)CC1` [Compound 167], which IC50 [1] is on record?
Its IC50 is > 50 µM.

With `CN(CCCCNC(=O)Nc1ccc(C(C)(C)C)cc1)C[C@H]1O[C@@H](n2cnc3c(N)ncnc32)[C@H](O)[C@@H]1O` [Compound 159] as the compound, how does the IC50 [1] read?
Its IC50 is > 50 µM.

Which IC50 [1] does the source give for `CC(C)(C)c1ccc(NC(=O)NCCCN(C=O)C[C@H]2O[C@@H](n3cnc4c(N)ncnc43)[C@H](O)[C@@H]2O)cc1` [Compound 206] here?
The IC50 was > 50 µM.

For `CN(CCCNC(=O)Nc1ccc(Oc2ccccc2N)cc1)C[C@H]1O[C@@H](n2cnc3c(N)ncnc32)[C@H](O)[C@@H]1O` [Compound 183], which IC50 [1] is on record?
The IC50 was > 50 µM.

For `CN(CCCNC(=O)Nc1ccc(C2CCCCC2)cc1)C[C@H]1O[C@@H](n2cnc3c(N)ncnc32)[C@H](O)[C@@H]1O` [Compound 185], which IC50 [1] is on record?
The IC50 was > 50 µM.
